Measurements as given in PubChem BioAssay (NCI).
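Grown in 96-well plates, cells were treated for 48 hours with each compound at five concentrations. Insufficient inhibition: endpoint recorded as highest concentration tested. GI50: concentration for 50% inhibition of growth. TGI: total growth inhibition.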

Columns and labels:
Test in all cases: DTP human tumour cell line panel, 48 h
[1] = test system: RXF 393 renal
[2] = test system: MDA-MB-435
[3] = test system: NCI-H522 lung
[4] = test system: HCC-2998 colon
[5] = test system: SN12C renal
[6] = test system: UO-31 renal
[7] = test system: MCF7 breast
[8] = test system: NCI-H226 lung
[9] = test system: SF-539 CNS
[10] = test system: U251 CNS
[11] = test system: NCI-H460 lung
[12] = test system: NCI-H23 lung
[13] = test system: TK-10 renal
[14] = test system: RPMI-8226 leukemia
[15] = test system: BT-549 breast
[16] = test system: OVCAR-5 ovarian
[17] = test system: HOP-62 NSCLC
[18] = test system: HCT-116 colon
[19] = test system: UACC-62 melanoma
[20] = test system: COLO 205 colon
[21] = test system: SW-620 colon
[22] = test system: OVCAR-3 ovarian
[23] = test system: SK-MEL-5 melanoma
[24] = test system: SF-268 CNS
[25] = test system: T-47D breast
[26] = test system: UACC-257 melanoma
[27] = test system: NCI/ADR-RES ovarian
[28] = test system: OVCAR-8 ovarian
[29] = test system: HOP-92 NSCLC
[30] = test system: K-562 leukemia
[31] = test system: HL-60(TB) leukemia
[32] = test system: HS 578T breast
[33] = test system: SNB-19 CNS
[34] = test system: EKVX NSCLC
[35] = test system: CCRF-CEM leukemia
[36] = test system: PC-3 prostate
[37] = test system: KM12 colon
[38] = test system: A549 NSCLC
[39] = test system: DU-145 prostate
[40] = test system: 786-0 renal
[41] = test system: LOX IMVI melanoma
[42] = test system: SR leukemia
[43] = test system: HCT-15 colon
[44] = test system: HT29 colon
[45] = test system: MDA-MB-231 breast
[46] = test system: ACHN renal
[47] = test system: SK-OV-3 ovarian
[48] = test system: SK-MEL-28 melanoma
[49] = test system: M14 melanoma
[50] = test system: SK-MEL-2 melanoma
[51] = test system: A498 renal
[52] = test system: IGROV1 ovarian
[53] = test system: CAKI-1 renal
[54] = test system: MALME-3M melanoma
[55] = test system: SF-295 CNS
[56] = test system: SNB-75 CNS
[57] = test system: OVCAR-4 ovarian
[58] = test system: MOLT-4 leukemia

SMILES: Cc1cc2c(C(C)C)c(O)c(O)c(C=Nc3cc(C(F)(F)F)ccc3Cl)c2c(O)c1-c1c(C)cc2c(C(C)C)c(O)c(O)c(C=Nc3cc(C(F)(F)F)ccc3Cl)c2c1O
- TGI [1]: 97.7 µM
- TGI [2]: 86 µM
- TGI [3]: 45.4 µM
- TGI [4]: > 100 µM
- TGI [5]: > 100 µM
- TGI [6]: > 100 µM
- TGI [7]: 71.4 µM
- TGI [8]: 95.4 µM
- TGI [9]: > 100 µM
- TGI [10]: 72.2 µM
- TGI [11]: > 100 µM
- TGI [12]: > 100 µM
- TGI [13]: > 100 µM
- TGI [14]: > 100 µM
- TGI [15]: 77.6 µM
- TGI [16]: > 100 µM
- TGI [17]: > 100 µM
- TGI [18]: > 100 µM
- TGI [19]: 51.8 µM
- TGI [20]: 90.5 µM
- TGI [21]: > 100 µM
- TGI [22]: > 100 µM
- TGI [23]: 64.7 µM
- TGI [24]: > 100 µM
- TGI [25]: > 100 µM
- TGI [26]: > 100 µM
- TGI [27]: > 100 µM
- TGI [28]: > 100 µM
- TGI [29]: 53.5 µM
- TGI [30]: > 100 µM
- TGI [31]: 78.5 µM
- TGI [32]: > 100 µM
- TGI [33]: > 100 µM
- TGI [34]: > 100 µM
- TGI [35]: > 100 µM
- TGI [36]: > 100 µM
- TGI [37]: 92.4 µM
- TGI [38]: > 100 µM
- TGI [39]: > 100 µM
- TGI [40]: > 100 µM
- TGI [41]: 47.3 µM
- TGI [42]: > 100 µM
- TGI [43]: > 100 µM
- TGI [44]: 79.3 µM
- TGI [45]: > 100 µM
- TGI [46]: 79.4 µM
- TGI [47]: 54 µM
- TGI [48]: > 100 µM
- TGI [49]: > 100 µM
- TGI [50]: 80.8 µM
- TGI [51]: > 100 µM
- TGI [52]: 75 µM
- TGI [53]: > 100 µM
- TGI [54]: 95 µM

SMILES: COc1cc(-c2csc(NC(=O)c3cc(C(F)(F)F)cc(C(F)(F)F)c3)n2)cc(OC)c1OC
- GI50 [1]: 1.96 µM
- TGI [1]: 8.94 µM
- GI50 [2]: 2.67 µM
- TGI [2]: > 100 µM
- GI50 [3]: 1.4 µM
- TGI [3]: 5.05 µM
- GI50 [4]: 3.2 µM
- TGI [4]: > 100 µM
- GI50 [5]: 2.78 µM
- TGI [5]: > 100 µM
- GI50 [6]: 2.57 µM
- TGI [6]: > 100 µM
- GI50 [7]: 2.16 µM
- TGI [7]: > 100 µM
- GI50 [9]: 3.35 µM
- TGI [9]: > 100 µM
- GI50 [10]: 2.7 µM
- TGI [10]: > 100 µM
- GI50 [11]: 2.97 µM
- TGI [11]: > 100 µM
- GI50 [55]: 2.27 µM
- TGI [55]: 14.7 µM
- GI50 [13]: 2.49 µM
- TGI [13]: > 100 µM
- GI50 [14]: 1.38 µM
- TGI [14]: 4.05 µM
- GI50 [15]: 2.16 µM
- TGI [15]: 6.66 µM
- GI50 [16]: 3.94 µM
- TGI [16]: > 100 µM
- GI50 [17]: 3.03 µM
- TGI [17]: > 100 µM
- GI50 [20]: 2.63 µM
- TGI [20]: 7.29 µM
- GI50 [56]: 2.83 µM
- TGI [56]: > 100 µM
- GI50 [21]: 3.44 µM
- TGI [21]: > 100 µM
- GI50 [22]: 2.98 µM
- TGI [22]: 19 µM
- GI50 [23]: 1.47 µM
- TGI [23]: 3.11 µM
- GI50 [24]: 3.64 µM
- TGI [24]: > 100 µM
- GI50 [25]: 1.84 µM
- TGI [25]: 6.29 µM
- GI50 [28]: 2.77 µM
- TGI [28]: > 100 µM
- GI50 [29]: 0.848 µM
- TGI [29]: 4.11 µM
- GI50 [30]: 2.75 µM
- TGI [30]: > 100 µM
- GI50 [57]: 2.86 µM
- TGI [57]: > 100 µM
- GI50 [31]: 2.07 µM
- TGI [31]: 6.18 µM
- GI50 [32]: 3.14 µM
- TGI [32]: > 100 µM
- GI50 [33]: 3.89 µM
- TGI [33]: > 100 µM
- GI50 [34]: 2.47 µM
- TGI [34]: > 100 µM
- GI50 [35]: 2.83 µM
- TGI [35]: > 100 µM
- GI50 [36]: 1.73 µM
- TGI [36]: 7.35 µM
- GI50 [37]: 2.86 µM
- TGI [37]: > 100 µM
- GI50 [38]: 2.58 µM
- TGI [38]: > 100 µM
- GI50 [58]: 1.92 µM
- TGI [58]: 4.98 µM
- GI50 [39]: 3.62 µM
- TGI [39]: > 100 µM
- GI50 [40]: 3.16 µM
- TGI [40]: > 100 µM
- GI50 [41]: 2.92 µM
- TGI [41]: > 100 µM
- GI50 [42]: 2.67 µM
- TGI [42]: 11.6 µM
- GI50 [43]: 2.71 µM
- TGI [43]: > 100 µM
- GI50 [44]: 2.07 µM
- TGI [44]: > 100 µM
- GI50 [45]: 2.72 µM
- TGI [45]: > 100 µM
- GI50 [46]: 3.42 µM
- TGI [46]: > 100 µM
- GI50 [47]: 2.91 µM
- TGI [47]: 9.76 µM
- GI50 [48]: 2.77 µM
- TGI [48]: > 100 µM
- GI50 [49]: 2.91 µM
- TGI [49]: > 100 µM
- GI50 [50]: 1.6 µM
- TGI [50]: 4.81 µM
- GI50 [51]: 2.63 µM
- TGI [51]: > 100 µM
- GI50 [52]: 4.37 µM
- TGI [52]: > 100 µM
- GI50 [53]: 2.63 µM
- TGI [53]: > 100 µM
